Laboratory results reported in paper PMC12749166, “Fragment-based drug design of a bacterial kinase inhibitor capable of increasing the antibiotic sensitivity of clinical isolates” (Communications Chemistry, 2025).

Key:
APH(3’)-IIb [1] = biological target: T1, APH(3’)-IIb (Pseudomonas aeruginosa, UniProt Q9HWR2, M95L); test: biochemical
T1 sequence (Q9HWR2 1-268 M95L): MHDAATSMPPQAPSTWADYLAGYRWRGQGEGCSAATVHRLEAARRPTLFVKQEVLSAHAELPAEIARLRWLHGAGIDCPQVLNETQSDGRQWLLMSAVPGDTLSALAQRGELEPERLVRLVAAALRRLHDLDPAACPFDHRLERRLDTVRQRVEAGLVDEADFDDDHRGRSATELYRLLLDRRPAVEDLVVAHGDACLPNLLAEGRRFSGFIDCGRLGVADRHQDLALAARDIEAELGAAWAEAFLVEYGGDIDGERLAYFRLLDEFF
Experimental: The reaction mixture consists of the APH and its substrates, as well as a potential inhibitor for inhibition measurements. Reactions were initiated by adding the ATP solution supplemented or not with the inhibitor, in a thermostated beaker containing the APH. […] The reaction was stopped at several time points by adding 80 µL of the enzymatic reaction mixture from the beaker to 40 µL of 10% perchloric acid (PCA) in an Eppendorf tube. Samples were then centrifuged for 30 min at 12750 rpm and 8 °C. 100 µL of the supernatant was then mixed with 900 µL of mobile phase (250 mM NaH2PO4, 50% Acetonitrile, pH 5.5) supplemented with KOH to readjust the pH to 5.5 before injection. […] 100 µL of samples were injected on a SAX PartiSphere column (AIT France) at a flow rate of 1 mL min^−1. ATP and ADP peaks were integrated, and the area under the peaks was calculated using OpenLab CDS software (v. ChemStation, Agilent). The kss values were then measured using linear regression in GraFit software and IC50 determined by fitting with a hyperbola the percentage of inhibition as a function of inhibitor concentration. The standard error of the IC50 value was determined in the GraFit software based on the fitting of the experimental data.

APH(2”)-IVa [2] = biological target: T2, APH(2”)-IVa (Enterococcus casseliflavus, UniProt O68183); test: biochemical
APH(3’)-IIa = biological target: T3, APH(3’)-IIa (Klebsiella pneumoniae, UniProt P00552); test: Isothermal Titration Calorimetry; type: binding, K. pneumoniae
T3 construct: His-tag (inferred from HisTrap purification); made in house; host or cells: E. coli BL21
Experimental: (§1) ITC experiments were performed on three different machines: a MicroCal VP-ITC (GE Healthcare), a MicroCal PEAQ-ITC (Malvern), or a MicroCal iTC200 (Malvern). The architecture and principles are similar for the three different systems. The experiments were carried out in Buffer HEPES at 25 °C. Titrations consisted of twenty injections of 1.5 µL inhibitors, every 120 seconds, into the measuring cell using the injection syringe rotating at 750 rpm. The data were analyzed using the MicroCal PEAQ-ITC software (v. 1.52, Malvern) using the single-site binding model to fit the raw data. The standard error of the Kd value was determined from measurements made on distinct samples (n indicated in the text).

APH(2”)-IVa [3] = biological target: T2, APH(2”)-IVa; test: biochemical; type: binding
Experimental: as §1

S. aureus C0032 = test: Checkerboard assay of 83 with kanamycin A; type: cell-based; conditions: for MIC of kanamycin A: 0.125 µg mL^−1 imipenem, 18 h at 37 °C; for checkerboard well reading (growth): Supp. Figure 3 C
P. aeruginosa C0307 = test: Bacterial growth kinetics over 24 h; type: cell-based
APH(3’)-IIb [4] = biological target: T1, APH(3’)-IIb; test: biochemical; remark: listed apart in the source
Experimental: Plates were placed in a Clariostar plate reader. […] The initial rate constants (kss) were then measured using a linear regression of the absorbance as a function of time using GraFit software (v. 7.0.3, Erithacus software). Inhibition constants were determined by global fittings of the dependences of kss as a function of ATP and inhibitor concentrations, using a competitive inhibition equation and GraFit software. The standard error of the Ki value was determined in the GraFit software based on the global fitting of four experimental series.

T2 sequence (O68183 1-301): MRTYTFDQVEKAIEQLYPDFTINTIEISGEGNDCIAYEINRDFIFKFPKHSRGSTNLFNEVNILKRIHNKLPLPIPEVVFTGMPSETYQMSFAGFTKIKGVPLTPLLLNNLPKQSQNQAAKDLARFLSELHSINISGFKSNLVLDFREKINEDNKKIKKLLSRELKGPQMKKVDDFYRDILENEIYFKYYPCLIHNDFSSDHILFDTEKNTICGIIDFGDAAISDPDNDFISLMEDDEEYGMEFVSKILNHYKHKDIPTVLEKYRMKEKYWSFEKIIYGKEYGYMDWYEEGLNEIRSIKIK
T3 sequence (P00552 whole entry): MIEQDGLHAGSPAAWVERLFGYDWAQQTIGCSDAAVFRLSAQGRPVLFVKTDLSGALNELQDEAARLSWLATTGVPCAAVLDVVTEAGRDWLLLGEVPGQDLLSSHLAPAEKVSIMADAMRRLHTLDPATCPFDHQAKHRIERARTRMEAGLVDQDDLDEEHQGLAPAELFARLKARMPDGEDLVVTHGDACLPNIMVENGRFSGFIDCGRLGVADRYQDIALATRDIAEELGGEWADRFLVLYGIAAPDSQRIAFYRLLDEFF

## Clc1cnc2[nH]ccc2c1-c1ccn[nH]1 [Compound 83]
APH(3’)-IIb [1]
  IC50: 1230 ± 40 nM
APH(2”)-IVa [2]; 100 µM of 83
  inhibition at 100 µM: 95%
APH(2”)-IVa [2]; Ki (µM), inhibition constant, ATP-competitive, 0-2 mM MgATP, 100 µM kanamycin A, global fitting
  Ki: 0.39 ± 0.04 µM
APH(3’)-IIa
  Kd: 1250 nM
APH(3’)-IIa; ITC
  ΔH: -13.1 kcal/mol
APH(2”)-IVa [3]
  Kd: 1060 ± 170 nM
APH(2”)-IVa [3]; ITC
  ΔH: -11.0 kcal/mol
S. aureus C0032; [83] 2 µg mL^−1
  MIC of kanamycin A: 4096 µg/mL
S. aureus C0032; [83] 4 µg mL^−1
  MIC of kanamycin A: 4096 µg/mL
S. aureus C0032; [83] 8 µg mL^−1
  MIC of kanamycin A: 4096 µg/mL
S. aureus C0032; [83] 16 µg mL^−1
  MIC of kanamycin A: 4096 µg/mL
S. aureus C0032; [83] 32 µg mL^−1
  MIC of kanamycin A: 2048 µg/mL
S. aureus C0032; [83] 64 µg mL^−1
  MIC of kanamycin A: 2048 µg/mL
S. aureus C0032; [83] 128 µg mL^−1
  MIC of kanamycin A: 2048 µg/mL
S. aureus C0032; 83 1 µg.mL-1, kanamycin A 0 µg.mL-1
  checkerboard well reading (growth): 0.496
S. aureus C0032; 83 1 µg.mL-1, kanamycin A 2 µg.mL-1
  checkerboard well reading (growth): 0.320
S. aureus C0032; 83 1 µg.mL-1, kanamycin A 4 µg.mL-1
  checkerboard well reading (growth): 0.317
S. aureus C0032; 83 1 µg.mL-1, kanamycin A 8 µg.mL-1
  checkerboard well reading (growth): 0.300
S. aureus C0032; 83 1 µg.mL-1, kanamycin A 16 µg.mL-1
  checkerboard well reading (growth): 0.287
S. aureus C0032; 83 1 µg.mL-1, kanamycin A 32 µg.mL-1
  checkerboard well reading (growth): 0.279
S. aureus C0032; 83 1 µg.mL-1, kanamycin A 64 µg.mL-1
  checkerboard well reading (growth): 0.255
S. aureus C0032; 83 1 µg.mL-1, kanamycin A 128 µg.mL-1
  checkerboard well reading (growth): 0.294
S. aureus C0032; 83 2 µg.mL-1, kanamycin A 0 µg.mL-1
  checkerboard well reading (growth): 0.442
S. aureus C0032; 83 2 µg.mL-1, kanamycin A 2 µg.mL-1
  checkerboard well reading (growth): 0.315
S. aureus C0032; 83 2 µg.mL-1, kanamycin A 4 µg.mL-1
  checkerboard well reading (growth): 0.311
S. aureus C0032; 83 2 µg.mL-1, kanamycin A 8 µg.mL-1
  checkerboard well reading (growth): 0.299
S. aureus C0032; 83 2 µg.mL-1, kanamycin A 16 µg.mL-1
  checkerboard well reading (growth): 0.295
S. aureus C0032; 83 2 µg.mL-1, kanamycin A 32 µg.mL-1
  checkerboard well reading (growth): 0.268
S. aureus C0032; 83 2 µg.mL-1, kanamycin A 64 µg.mL-1
  checkerboard well reading (growth): 0.246
S. aureus C0032; 83 2 µg.mL-1, kanamycin A 128 µg.mL-1
  checkerboard well reading (growth): 0.245
S. aureus C0032; 83 4 µg.mL-1, kanamycin A 0 µg.mL-1
  checkerboard well reading (growth): 0.451
S. aureus C0032; 83 4 µg.mL-1, kanamycin A 2 µg.mL-1
  checkerboard well reading (growth): 0.356
S. aureus C0032; 83 4 µg.mL-1, kanamycin A 4 µg.mL-1
  checkerboard well reading (growth): 0.318
S. aureus C0032; 83 4 µg.mL-1, kanamycin A 8 µg.mL-1
  checkerboard well reading (growth): 0.313
S. aureus C0032; 83 4 µg.mL-1, kanamycin A 16 µg.mL-1
  checkerboard well reading (growth): 0.286
S. aureus C0032; 83 4 µg.mL-1, kanamycin A 32 µg.mL-1
  checkerboard well reading (growth): 0.267
S. aureus C0032; 83 4 µg.mL-1, kanamycin A 64 µg.mL-1
  checkerboard well reading (growth): 0.243
S. aureus C0032; 83 4 µg.mL-1, kanamycin A 128 µg.mL-1
  checkerboard well reading (growth): 0.258
S. aureus C0032; 83 8 µg.mL-1, kanamycin A 0 µg.mL-1
  checkerboard well reading (growth): 0.402
S. aureus C0032; 83 8 µg.mL-1, kanamycin A 2 µg.mL-1
  checkerboard well reading (growth): 0.304
S. aureus C0032; 83 8 µg.mL-1, kanamycin A 4 µg.mL-1
  checkerboard well reading (growth): 0.300
S. aureus C0032; 83 8 µg.mL-1, kanamycin A 8 µg.mL-1
  checkerboard well reading (growth): 0.292
S. aureus C0032; 83 8 µg.mL-1, kanamycin A 16 µg.mL-1
  checkerboard well reading (growth): 0.282
S. aureus C0032; 83 8 µg.mL-1, kanamycin A 32 µg.mL-1
  checkerboard well reading (growth): 0.271
S. aureus C0032; 83 8 µg.mL-1, kanamycin A 64 µg.mL-1
  checkerboard well reading (growth): 0.244
S. aureus C0032; 83 8 µg.mL-1, kanamycin A 128 µg.mL-1
  checkerboard well reading (growth): 0.258
S. aureus C0032; 83 16 µg.mL-1, kanamycin A 0 µg.mL-1
  checkerboard well reading (growth): 0.581
S. aureus C0032; 83 16 µg.mL-1, kanamycin A 2 µg.mL-1
  checkerboard well reading (growth): 0.303
S. aureus C0032; 83 16 µg.mL-1, kanamycin A 4 µg.mL-1
  checkerboard well reading (growth): 0.295
S. aureus C0032; 83 16 µg.mL-1, kanamycin A 8 µg.mL-1
  checkerboard well reading (growth): 0.293
S. aureus C0032; 83 16 µg.mL-1, kanamycin A 16 µg.mL-1
  checkerboard well reading (growth): 0.274
S. aureus C0032; 83 16 µg.mL-1, kanamycin A 32 µg.mL-1
  checkerboard well reading (growth): 0.258
S. aureus C0032; 83 16 µg.mL-1, kanamycin A 64 µg.mL-1
  checkerboard well reading (growth): 0.242
S. aureus C0032; 83 16 µg.mL-1, kanamycin A 128 µg.mL-1
  checkerboard well reading (growth): 0.200
S. aureus C0032; 83 32 µg.mL-1, kanamycin A 0 µg.mL-1
  checkerboard well reading (growth): 0.378
S. aureus C0032; 83 32 µg.mL-1, kanamycin A 2 µg.mL-1
  checkerboard well reading (growth): 0.299
S. aureus C0032; 83 32 µg.mL-1, kanamycin A 4 µg.mL-1
  checkerboard well reading (growth): 0.294
S. aureus C0032; 83 32 µg.mL-1, kanamycin A 8 µg.mL-1
  checkerboard well reading (growth): 0.273
S. aureus C0032; 83 32 µg.mL-1, kanamycin A 16 µg.mL-1
  checkerboard well reading (growth): 0.281
S. aureus C0032; 83 32 µg.mL-1, kanamycin A 32 µg.mL-1
  checkerboard well reading (growth): 0.249
S. aureus C0032; 83 32 µg.mL-1, kanamycin A 64 µg.mL-1
  checkerboard well reading (growth): 0.215
S. aureus C0032; 83 32 µg.mL-1, kanamycin A 128 µg.mL-1
  checkerboard well reading (growth): 0.082
S. aureus C0032; 83 64 µg.mL-1, kanamycin A 0 µg.mL-1
  checkerboard well reading (growth): 0.357
S. aureus C0032; 83 64 µg.mL-1, kanamycin A 2 µg.mL-1
  checkerboard well reading (growth): 0.295
S. aureus C0032; 83 64 µg.mL-1, kanamycin A 4 µg.mL-1
  checkerboard well reading (growth): 0.275
S. aureus C0032; 83 64 µg.mL-1, kanamycin A 8 µg.mL-1
  checkerboard well reading (growth): 0.274
S. aureus C0032; 83 64 µg.mL-1, kanamycin A 16 µg.mL-1
  checkerboard well reading (growth): 0.256
S. aureus C0032; 83 64 µg.mL-1, kanamycin A 32 µg.mL-1
  checkerboard well reading (growth): 0.227
S. aureus C0032; 83 64 µg.mL-1, kanamycin A 64 µg.mL-1
  checkerboard well reading (growth): 0.165
S. aureus C0032; 83 64 µg.mL-1, kanamycin A 128 µg.mL-1
  checkerboard well reading (growth): 0.053
S. aureus C0032; 83 128 µg.mL-1, kanamycin A 0 µg.mL-1
  checkerboard well reading (growth): 0.433
S. aureus C0032; 83 128 µg.mL-1, kanamycin A 2 µg.mL-1
  checkerboard well reading (growth): 0.365
S. aureus C0032; 83 128 µg.mL-1, kanamycin A 4 µg.mL-1
  checkerboard well reading (growth): 0.303
S. aureus C0032; 83 128 µg.mL-1, kanamycin A 8 µg.mL-1
  checkerboard well reading (growth): 0.296
S. aureus C0032; 83 128 µg.mL-1, kanamycin A 16 µg.mL-1
  checkerboard well reading (growth): 0.283
S. aureus C0032; 83 128 µg.mL-1, kanamycin A 32 µg.mL-1
  checkerboard well reading (growth): 0.276
S. aureus C0032; 83 128 µg.mL-1, kanamycin A 64 µg.mL-1
  checkerboard well reading (growth): 0.204
S. aureus C0032; 83 128 µg.mL-1, kanamycin A 128 µg.mL-1
  checkerboard well reading (growth): 0.066
S. aureus C0032; absence of antibiotics, 83 from 0 to 128 µg mL^−1 (585 µM)
  Impact of 83 alone on bacterial growth: no impact on bacterial growth
P. aeruginosa C0307; 8 µg mL^−1 kanamycin A, 83 at 500 µM
  Delay of the onset of growth: around 6 h
P. aeruginosa C0307; 16 µg mL^−1 kanamycin A, 500 µM 83
  Extension of latency: 12 h
P. aeruginosa C0307; 32 µg mL^−1 kanamycin A, 500 µM 83, 24 h of incubation
  Growth: growth did not begin after 24 h of incubation
P. aeruginosa C0307; up to 500 µM (109 µg mL^−1), no kanamycin A, 24 h
  Toxicity of 83 alone on bacteria: no toxicity
APH(3’)-IIb [4]
  inhibition at 100 µM: 91%
